Assay: Effect of oral hypoestoxide on blood cholesterol and triglyceride levels in a beagle dog (standard colorimetric method on sera)
Assay type: in vivo
Details: 30 mg/kg oral once daily for seven days; for Triglycerides / Cholesterol: dog serum; for Triglycerides: day −1 value 300; for Cholesterol: day −1 value 308
Protocol: In one example, hypoestoxide was administered orally to a 2-year-old female beagle dog at a dose of 30 mg/kg, once daily for seven days. Blood cholesterol and triglyceride levels were determined in sera obtained at days 1, 3, 7 and 14, respectively. Assays were performed by a standard colorimetric method by a commercial laboratory (Antech Diagnostics, Irvine, Calif.).

SMILES: C=C1C(=O)C[C@H]2C[C@@H]3O[C@@]3(C)CC[C@@H]3O[C@@]3(C)C[C@@H](OC(C)=O)[C@H]1C2(C)C [hypoestoxide]
- blood cholesterol and triglyceride levels (effect in words) (beagle dog): significantly lowered
- Triglycerides (day 1, normal reference range 29-291): 296 mg/dL
- Cholesterol (day 1, normal reference range 92-324): 122 mg/dL
- Triglycerides (day 3): 70 mg/dL
- Cholesterol (day 3): 130 mg/dL
- Triglycerides (day 7): 33 mg/dL
- Cholesterol (day 7): 124 mg/dL
- Triglycerides (day 14): 51 mg/dL
- Cholesterol (day 14): 134 mg/dL

From patent US20040087553A1, “Hypoestoxides, derivatives and agonists thereof for use in the treatment and prophylaxis of hyperlipidemia” (Paraquest, Inc., priority 2002, published 2004)
